Tests used:
T-47D = conditions: 48 h
[1] = Homo sapiens, 48 h, read-out: LC50

## COc1cc2c(c(OC)c1OC)-c1ccc(NNC(N)=S)c(=O)cc1C(NC(C)=O)CC2 [Compound 2, N-[(aS,7S)-10-(2-carbamothioylhydrazinyl)-1,2,3-trimethoxy-9-oxo-5,6,7,9-tetrahydrobenzo[a]heptalen-7-yl]acetamide monohydrate × ⅔ (ethyl acetate)]
MOLT-4; Homo sapiens, MOLT-4, 48 h
  GI50: 548 nM
MOLT-4; Homo sapiens, MOLT-4, 48 h, read-out: LC50
  CC50: > 100 µM
MOLT-4; MOLT-4, leukemia, mutant p53, 48 h
  TGI: > 100 µM
RPMI-8226; Homo sapiens, RPMI-8226, 48 h
  GI50: 349 nM
RPMI-8226; Homo sapiens, RPMI-8226, 48 h, read-out: LC50
  CC50: > 100 µM
RPMI-8226; RPMI-8226, leukemia, mutant p53, 48 h
  TGI: 8.65 µM
A549; A549, non-small-cell lung cancer, wild-type p53, 48 h
  TGI: > 100 µM
A549; Homo sapiens, A549, 48 h
  GI50: 3.23 µM
A549; Homo sapiens, A549, 48 h, read-out: LC50
  CC50: > 100 µM
COLO 205; COLO 205, colon cancer, mutant p53, 48 h
  TGI: 0.622 µM
COLO 205; Homo sapiens, COLO 205, 48 h
  GI50: 280 nM
COLO 205; Homo sapiens, COLO 205, 48 h, read-out: LC50
  CC50: 9.13 µM
HCC-2998; HCC-2998, colon cancer, mutant p53, 48 h
  TGI: 0.674 µM
HCC-2998; Homo sapiens, HCC 2998, 48 h
  GI50: 272 nM
HCC-2998; Homo sapiens, HCC 2998, 48 h, read-out: LC50
  CC50: > 100 µM
HCT-116; HCT-116, colon cancer, wild-type p53, 48 h
  TGI: 10.6 µM
HCT-116; Homo sapiens, HCT-116, 48 h
  GI50: 377 nM
HCT-116; Homo sapiens, HCT-116, 48 h, read-out: LC50
  CC50: > 100 µM
SW-620; Homo sapiens, SW-620, 48 h
  GI50: 369 nM
SW-620; Homo sapiens, SW-620, 48 h, read-out: LC50
  CC50: > 100 µM
SW-620; SW-620, colon cancer, mutant p53, 48 h
  TGI: > 100 µM
SF-268; Homo sapiens, SF-268, 48 h
  GI50: 581 nM
SF-268; Homo sapiens, SF-268, 48 h, read-out: LC50
  CC50: > 100 µM
SF-268; SF-268, CNS cancer (brain tumor), mutant p53, 48 h
  TGI: > 100 µM
SF-539; Homo sapiens, SF-539, 48 h
  GI50: 418 nM
SF-539; Homo sapiens, SF-539, 48 h, read-out: LC50
  CC50: > 100 µM
SF-539; SF-539, CNS cancer (brain tumor), mutant p53, 48 h
  TGI: 20.5 µM
SNB-19; Homo sapiens, SNB-19, 48 h
  GI50: 686 nM
SNB-19; Homo sapiens, SNB-19, 48 h, read-out: LC50
  CC50: > 100 µM
SNB-19; SNB-19, CNS cancer (brain tumor), mutant p53, 48 h
  TGI: > 100 µM
SNB-75; Homo sapiens, SNB-75, 48 h
  GI50: 441 nM
SNB-75; Homo sapiens, SNB-75, 48 h, read-out: LC50
  CC50: > 100 µM
SNB-75; SNB-75, CNS cancer (brain tumor), mutant p53, 48 h
  TGI: > 100 µM
M14; Homo sapiens, M14, 48 h
  GI50: 284 nM
M14; Homo sapiens, M14, 48 h, read-out: LC50
  CC50: > 100 µM
M14; M14, melanoma, mutant p53, 48 h
  TGI: 0.735 µM
MDA-MB-435; Homo sapiens, MDA-MB-435, 48 h
  GI50: 233 nM
MDA-MB-435; Homo sapiens, MDA-MB-435, 48 h, read-out: LC50
  CC50: > 100 µM
MDA-MB-435; MDA-MB-435, melanoma, mutant p53, 48 h
  TGI: 0.838 µM
SK-MEL-5; Homo sapiens, SK-MEL-5, 48 h
  GI50: 373 nM
SK-MEL-5; Homo sapiens, SK-MEL-5, 48 h, read-out: LC50
  CC50: > 100 µM
SK-MEL-5; SK-MEL-5, melanoma, wild-type p53, 48 h
  TGI: 4.71 µM
UACC-62; Homo sapiens, UACC-62, 48 h
  GI50: 625 nM
UACC-62; Homo sapiens, UACC-62, 48 h, read-out: LC50
  CC50: > 100 µM
UACC-62; UACC-62, melanoma, wild-type p53, 48 h
  TGI: > 100 µM
IGROV1; Homo sapiens, IGROV-1, 48 h
  GI50: 1180 nM
IGROV1; Homo sapiens, IGROV-1, 48 h, read-out: LC50
  CC50: > 100 µM
IGROV1; IGROV1, ovarian cancer, mutant p53, 48 h
  TGI: > 100 µM
OVCAR-3; Homo sapiens, OVCAR-3, 48 h
  GI50: 217 nM
OVCAR-3; OVCAR-3, ovarian cancer, mutant p53, 48 h
  TGI: 0.459 µM
OVCAR-5; Homo sapiens, OVCAR-5, 48 h
  GI50: 9.67 µM
OVCAR-5; Homo sapiens, OVCAR-5, 48 h, read-out: LC50
  CC50: > 100 µM
OVCAR-5; OVCAR-5, ovarian cancer, p53 Lit. inconclusive, 48 h
  TGI: > 100 µM
OVCAR-8; Homo sapiens, OVCAR-8, 48 h
  GI50: 970 nM
OVCAR-8; Homo sapiens, OVCAR-8, 48 h, read-out: LC50
  CC50: > 100 µM
OVCAR-8; OVCAR-8, ovarian cancer, mutant p53, 48 h
  TGI: > 100 µM
NCI/ADR-RES; Homo sapiens, 48 h
  GI50: 25.3 µM
NCI/ADR-RES; [1]
  CC50: > 100 µM
NCI/ADR-RES; ovarian cancer, mutant p53, 48 h
  TGI: > 100 µM
A498; A498, renal cancer, wild-type p53, 48 h
  TGI: > 100 µM
A498; Homo sapiens, A498, 48 h
  GI50: 2090 nM
A498; Homo sapiens, A498, 48 h, read-out: LC50
  CC50: > 100 µM
ACHN; Homo sapiens, 48 h
  GI50: 8.5 µM
ACHN; [1]
  CC50: > 100 µM
ACHN; renal cancer, wild-type p53, 48 h
  TGI: > 100 µM
CAKI-1; CAKI-1, renal cancer, wild-type p53, 48 h
  TGI: > 100 µM
CAKI-1; Homo sapiens, CAKI-1, 48 h
  GI50: 7.12 µM
CAKI-1; Homo sapiens, CAKI-1, 48 h, read-out: LC50
  CC50: > 100 µM
UO-31; Homo sapiens, UO-31, 48 h
  GI50: > 100 µM
UO-31; Homo sapiens, UO-31, 48 h, read-out: LC50
  CC50: > 100 µM
UO-31; UO-31, renal cancer, wild-type p53, 48 h
  TGI: > 100 µM
MCF7; Homo sapiens, MCF7, 48 h
  GI50: 415 nM
MCF7; Homo sapiens, MCF7, 48 h, read-out: LC50
  CC50: > 100 µM
MCF7; MCF7, breast cancer, wild-type p53, 48 h
  TGI: > 100 µM
T-47D; Homo sapiens, T47D
  GI50: > 100 µM
T-47D; Homo sapiens, T47D, read-out: LC50
  CC50: > 100 µM
T-47D; T-47D, breast cancer, mutant p53
  TGI: > 100 µM
MDA-MB-468; Homo sapiens, MDA-MB-468, 48 h
  GI50: 158 nM
MDA-MB-468; Homo sapiens, MDA-MB-468, 48 h, read-out: LC50
  CC50: > 100 µM
MDA-MB-468; MDA-MB-468, breast cancer, mutant p53, 48 h
  TGI: 0.464 µM

— PMC10892984, “Novel Antineoplastic Inducers of Mitochondrial Apoptosis in Human Cancer Cells” (Molecules, 2024)
